For one series, the system named is ferroptosis. Conditions: cited from earlier work.
The test system of the next series is PTGS2. The note with it: cited from earlier work.
For the next series, the system named is HIF2alpha. The series can be described thus: Western blot for HIF2alpha in C2BBE1 cells. In kind it is cell-based. The note with it: parental C2BBE1 cells, treatment for 24 hours, relative to untreated. In general terms: In western blotting, separated proteins are transferred to a membrane and probed.
The next series relates to MKN74 cells. Put plainly: Clonogenic growth assay in MKN74 cells. In kind it is cell-based. Conditions: MKN74 stable shRNA lines infected with constitutive cDNA lentivirus (GFP, WT NFS1 or NFS1^C381A), thirteen days post-doxycycline. How it is done: Clonogenic assays were performed for longer-term assessment of proliferative phenotypes. Three days following doxycycline (dox)-induction (of stable, inducible shRNA lines using 0.5 ug/mL dox) or infection (for constitutive shRNA expression), cells were trypsinized, counted (Countess Automated Cell Counter. Life Technologies), and re-plated in duplicate or triplicate in 6-well dishes at 750 to 3000 cells per well, depending on cell line. Clonogenic growth was monitored by RFP (pRSIT12 vector) or GFP (pRSI6 vector) expression at 1 week intervals using a laser scanning cytometer to measure colony area and numbers of colonies per well (IsoCyte, ImageXpress Velos). Two to three weeks after plating cells, cells were stained using crystal violet as an additional visualization of colony formation. […]
Knockdown of NFS1 inhibits clonogenic cell growth. […] Three days post-dox-induction, cells were trypsinized, counted, and plated at low density (750 cells per well of a 6-well dish) for assaying clonogenic growth. Additional cells were also collected and assessed by q-RT-PCR for NFS1 knockdown. Clonogenic growth (relative colony area shown in FIG. 5, as well as the number of objects) was monitored by red fluorescent protein (RFP) expression over two weeks scanning the plates on a laser scanning cytometer (IsoCyte, ImageXpress Velos). […]

The test system of a further series is aconitase. Put plainly: Aconitase activity colorimetric assay in MKN74 lysates. The note with it: MKN74, constitutive shRNA or cDNA lentivirus, seven days post-infection. Format: cell-based. How it is done: Aconitase activity was assessed three to eleven days post-infection or dox induction in one million cells using the Aconitase Activity calorimetric Assay Kit (Biovision K716-100). Succinate dehydrogenase activity was assessed using the Succinate Dehydrogenase Activity Colorimetric Assay Kit (Biovision K660-100).
(§1) In order to confirm that such pharmacodynamic markers associated with NFS1 can be used as adjuncts or surrogate markers for directly assessing NFS1 modulation, several experiments were performed. […] The stable lines were replated at 3 days post-dox, cultured for 3 days further, and assessed for NFS1 mRNA knockdown (top right panel) or PTGS2 (Cox2) mRNA levels (bottom right panel) by q-RT-PCR. […]
Similarly, after 7 days of NFS1 knockdown, decreases in aconitase activity and ferritin protein levels, along with upregulation of TFRC protein we observed (FIG. 15). […] These cells were then either lysed in RIPA buffer, quantified, and equally loaded on a SDS-PAGE gel for analysis by Western by staining for TfRC, NFS1, FTL, or GAPDH (loading control); or trypsinized, counted, lysed, and analyzed for aconitase activity. […] These cells were then either lysed in RIPA buffer, quantified, and equally loaded on a SDS-PAGE gel for analysis by Western and staining for NFS1 and GAPDH; or trypsinized, counted, lysed and analyzed for succinate dehydrogenase activity and aconitase activity. […]

For another series, the system named is ferritin. The series can be described thus: Western blot for ferritin (FTH1/FTL) in MKN74. In kind it is cell-based. The note with it: MKN74, constitutive shRNA or cDNA lentivirus, seven days post-infection. How it is done:
Cells were lysed in NP-40 lysis buffer (Boston BioProducts) supplemented with 1× Halt Protease/Phosphatase Inhibitor Cocktail (Pierce Biotechnology, Inc.), 1 mM Dithiothreitol, and 1 mM Phenylmethanesulfonylfluoride. Lysates were cleared by centrifugation and quantified using a BCA Protein Assay Kit (Pierce Biotechnology, Inc.). Lysates were resolved by SDS-PAGE (using Mini-Protean TGX gradient gels, Bio-Rad Laboratories), transferred to nitrocellulose (using the iBlot Gel, Transfer Device and Dry Blotting System, Life Technologies) and blocked in 5% nonfat milk (Blotting-Grade Blocker, Bio-Rad). […] Peroxidase-conjugated secondary antibodies (Donkey anti-rabbit IgG or Donkey anti-mouse IgG, Jackson ImmunoResearch Laboratories, Inc.) were used at 1:5000 in 5% blocking solution, and protein bands were detected using Pico SuperSignal West Pico Chemiluminescent substrate (Thermo Scientific, Pierce Biotechnology, Inc.).
as §1

The values that follow come from patent US10947596B2, “Compositions and methods for identification, assessment, prevention, and treatment of cancer using NFS1 biomarkers and modulators” (Dana-Farber Cancer Institute, Inc., priority 2014, dated 2021).

Entries after “also recorded” stand apart in the source; their conditions may differ.

Take `COC(=O)c1ccc([C@H]2c3[nH]c4ccccc4c3C[C@H](C(=O)OC)N2C(=O)CCl)cc1` [1S3R-RSL3, (1S,3R)-RSL3]: the ferroptosis result with ferroptosis is listed as “induce ferroptosis”. For the same compound, the PTGS2 expression result with PTGS2 was “upregulation”.
`[Cl][Co][Cl]` [cobalt chloride]: the HIF2alpha levels entry with HIF2alpha is listed as “modulation of HIF2alpha levels”.
With “NFS1^C381A: mutant NFS1 that is catalytically dead due to a C381A mutation, dominant negative, expressed from lentiviral cDNA”, the clonogenic growth result in the series with MKN74 cells is listed as “growth inhibitory effects comparable to that of NFS1-sh5; also recorded: strongly inhibited cell growth”. The aconitase activity result in the series on aconitase is recorded as “decrease”. For the same compound, in the series on ferritin, the “ferritin (FTH1) levels” value is “decrease”.
